According to publication PMC8881610 (Nature Communications, 2022):
“And” between values parts separate entries of the source, which are not always exact repeats. Equal entries are not always repeated. Where two headings read alike, the source gives them in different places. Where a SMILES comes first, the peptide text is derived from it. [ ]: non-standard residue; d: D form. Aib = CC(C)(N)C(=O)O

Columns and labels:
GIPR = target: T1, GIPR (Homo sapiens, UniProt P48546); experiment: Whole-cell binding assay, competition with 125I-GIP1-42; design: acylated tirzepatide to the full-length or modified; Flag; expressed in transfected cells
T1 sequence (P48546 22-466): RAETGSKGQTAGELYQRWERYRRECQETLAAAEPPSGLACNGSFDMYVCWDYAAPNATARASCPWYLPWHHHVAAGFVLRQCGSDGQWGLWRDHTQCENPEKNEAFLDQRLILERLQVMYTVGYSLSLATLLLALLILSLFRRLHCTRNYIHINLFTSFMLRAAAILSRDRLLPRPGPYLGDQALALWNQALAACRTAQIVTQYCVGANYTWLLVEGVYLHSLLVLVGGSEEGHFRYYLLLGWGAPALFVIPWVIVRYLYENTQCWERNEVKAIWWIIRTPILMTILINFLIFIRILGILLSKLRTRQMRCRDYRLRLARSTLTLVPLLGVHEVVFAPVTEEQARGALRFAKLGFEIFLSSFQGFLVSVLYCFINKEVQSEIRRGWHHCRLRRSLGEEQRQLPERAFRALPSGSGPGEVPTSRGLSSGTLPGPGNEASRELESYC
Method: (§1) Human embryonic kidney 293 cells containing SV40 large T-antigen (HEK293T) were cultured in DMEM (Gibco) supplemented with 10% (v/v) fetal bovine serum (FBS, Gibco), 1 mM sodium pyruvate (Gibco) and 100 units/mL penicillin and 100 μg/mL streptomycin at 37 °C in 5% CO2. Chinese hamster ovary (CHO-K1) cells were cultured in F-12 (Gibco) containing 10% FBS, 100 units/mL penicillin and 100 μg/mL streptomycin at 37 °C in 5% CO2. For cAMP and receptor expression assays, HEK293T cells were seeded into 6-well cell culture plates at a density of 7 × 10^5 cells per well. After overnight incubation, cells were transfected with GIPR, GLP-1R or GCGR construct using Lipofectamine 2000 or Lipofectamine 3000 transfection reagent (Invitrogen). For whole-cell binding assay, CHO-K1 cells were seeded into 96-well fibronectin-treated cell culture plates at a density of 3 × 10^4 cells per well. After overnight incubation, cells were transfected with GIPR, GLP-1R or GCGR construct using Lipofectamine 2000 transfection reagent (Invitrogen). Following 24 h culturing, the transfected cells were ready for use.
For GIPR, CHO-K1 cells were cultured in F-12 medium with 10% FBS and seeded at a density of 30,000 cells/well in Isoplate-96 plates (PerkinElmer). The WT or mutant GIPR was transiently transfected using Lipofectamine 2000 transfection reagent as previous described. They were then washed twice using F-12 with 0.1% BSA or 0.1% casein, 33 mM HEPES, and incubated for 2 h at 37 °C. […] Following incubation, cells were washed three times with ice-cold PBS and lysed by addition of 50 μL lysis buffer (PBS supplemented with 20 mM Tris-HCl, 1% Triton X-100, pH 7.4). Fifty µL of scintillation cocktail (OptiPhase SuperMix, PerkinElmer) were added and the plates were subsequently counted for radioactivity (counts per minute, CPM) in a MicroBeta^2 microplate counter (PerkinElmer).

GLP-1R [1] = target: T2, GLP-1R (Homo sapiens, UniProt P43220); experiment: cAMP accumulation assay, GLP-1R WT, mutant or modified constructs; format: cell-based; design: Flag; expressed in transfected cells; host or cells: HEK293T; details: for EC50 / Emax: HEK293T; for Emax: HEK-293T
Method: as §1
The human GLP-1R was modified with its native signal sequence (M1-P23) replaced by the HA signal peptide to facilitate receptor expression. To obtain a GLP-1R–Gs complex with good homogeneity and stability, we used the NanoBiT tethering strategy, in which the C terminus of GLP-1R was directly attached to LgBiT subunit followed by a TEV protease cleavage site and a double MBP tag. […] The constructs were cloned into both pcDNA3.1 and pFastBac vectors for functional assays in mammalian cells and protein expression in insect cells, respectively. Other constructs including the full-length and various mutants of human GLP-1R were cloned into pcDNA3.1 vector for cAMP accumulation and whole-cell binding assays.
For GIPR, GLP-1R and GCGR, multi-targeting agonist stimulated cAMP accumulation was measured by a LANCE Ultra cAMP kit (PerkinElmer). After 24 h culture, the transfected cells were seeded into 384-well microtiter plates at a density of 3,000 cells per well in HBSS supplemented with 5 mM HEPES, 0.1% (w/v) BSA or 0.1% (w/v) casein and 0.5 mM 3-isobutyl-1-methylxanthine. The cells were stimulated with different concentrations of peptide agonists for 40 min at RT. Eu-cAMP tracer and ULight^TM-anti-cAMP were then diluted by cAMP detection buffer and added to the plates separately to terminate the reaction. Plates were incubated at RT for 1 h and the fluorescence intensity measured at 620 nm and […] by an EnVision multilabel plate reader (PerkinElmer).

GLP-1R [2] = target: T2, GLP-1R; experiment: Whole-cell binding assay, competition with 125I-GLP-1(7-36)NH2; design: Flag; expressed in transfected cells; details: for binding Span / IC50: CHO-K1
Method: as §1
(§2) For GLP-1R and GCGR, CHO-K1 cells (30,000 cells/well) were seeded into Isoplate-96 plates and incubated for 24 h at 37 °C in 5% CO2. The WT or mutant constructs were transiently transfected using Lipofectamine 2000 transfection reagent as previous described. They were then washed twice using F-12 with 0.1% BSA or 0.1% casein, 33 mM HEPES, and incubated for 2 h at 37 °C. […] Cells were washed three times with ice-cold PBS and lysed in PBS with 1% Triton X-100, 20 mM Tris-HCl. After addition of scintillation cocktail (PerkinElmer), radioactivity (CPM) was counted on a MicroBeta^2 microplate counter (PerkinElmer). Data were normalized to the WT response and analyzed using three-parameter logistic equation.

GCGR = GCGR (Homo sapiens, UniProt P47871); experiment: Whole-cell binding assay, competition with 125I-GCG; design: V5 (C); 6×His (C); expressed in transfected cells; host or cells: CHO-K1; details: for binding Span / binding pIC50: GCGR WT, CHO-K1
Method: as §1, §2

[3] = GIPR WT, 0.1% casein, CHO-K1, read-out: Binding pIC50 (converted)
[4] = GIPR, effect of tirzepatide acylation, CHO-K1, read-out: binding pIC50 (converted)
[5] = GLP-1R WT, 0.1% BSA, read-out: cAMP accumulation pEC50 (converted)
[6] = GLP-1R WT, 0.1% BSA, read-out: cAMP accumulation Emax
[7] = GLP-1R WT, 0.1% casein, read-out: cAMP accumulation Emax

GCGR, sequence (P47871 26-477): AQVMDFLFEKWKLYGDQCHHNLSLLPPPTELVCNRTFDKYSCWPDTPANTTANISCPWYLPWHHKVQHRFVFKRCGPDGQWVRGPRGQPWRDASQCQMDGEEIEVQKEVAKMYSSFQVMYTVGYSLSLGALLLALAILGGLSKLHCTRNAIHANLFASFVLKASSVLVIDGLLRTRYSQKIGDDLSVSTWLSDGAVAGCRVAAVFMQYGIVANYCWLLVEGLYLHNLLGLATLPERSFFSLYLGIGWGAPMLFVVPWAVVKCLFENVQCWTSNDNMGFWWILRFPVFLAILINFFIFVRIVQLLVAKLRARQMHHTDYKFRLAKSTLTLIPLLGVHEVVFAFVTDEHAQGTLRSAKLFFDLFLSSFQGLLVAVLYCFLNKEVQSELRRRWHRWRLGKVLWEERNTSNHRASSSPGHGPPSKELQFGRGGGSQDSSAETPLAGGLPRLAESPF
T2 sequence (P43220 24-463): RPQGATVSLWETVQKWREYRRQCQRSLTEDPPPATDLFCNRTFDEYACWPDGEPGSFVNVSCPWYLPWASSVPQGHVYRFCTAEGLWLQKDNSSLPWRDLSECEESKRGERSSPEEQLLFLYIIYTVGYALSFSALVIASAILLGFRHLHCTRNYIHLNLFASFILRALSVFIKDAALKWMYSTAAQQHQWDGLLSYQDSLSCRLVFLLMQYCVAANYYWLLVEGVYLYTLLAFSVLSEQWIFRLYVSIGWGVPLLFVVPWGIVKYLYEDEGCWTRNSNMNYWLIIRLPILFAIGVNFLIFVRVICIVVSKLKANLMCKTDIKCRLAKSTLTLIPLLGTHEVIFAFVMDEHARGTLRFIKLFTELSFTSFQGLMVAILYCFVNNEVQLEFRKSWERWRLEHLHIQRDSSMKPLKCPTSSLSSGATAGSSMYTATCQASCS

SMILES: CC[C@H](C)[C@H](NC(=O)[C@H](CC(C)C)NC(=O)[C@H](Cc1c[nH]c2ccccc12)NC(=O)[C@H](CCC(N)=O)NC(=O)[C@@H](NC(=O)[C@H](Cc1ccccc1)NC(=O)[C@H](C)NC(=O)[C@H](CCCCN)NC(=O)[C@H](CCC(N)=O)NC(=O)[C@H](C)NC(=O)[C@@H](NC(=O)[C@H](CCCCN)NC(=O)[C@H](CC(=O)O)NC(=O)[C@H](CC(C)C)NC(=O)C(C)(C)NC(=O)[C@@H](NC(=O)[C@H](CO)NC(=O)[C@H](Cc1ccc(O)cc1)NC(=O)[C@H](CC(=O)O)NC(=O)[C@H](CO)NC(=O)[C@@H](NC(=O)[C@H](Cc1ccccc1)NC(=O)[C@@H](NC(=O)CNC(=O)[C@H](CCC(=O)O)NC(=O)C(C)(C)NC(=O)[C@@H](N)Cc1ccc(O)cc1)[C@@H](C)O)[C@@H](C)O)[C@@H](C)CC)[C@@H](C)CC)C(C)C)C(=O)N[C@@H](C)C(=O)NCC(=O)NCC(=O)N1CCC[C@H]1C(=O)N[C@@H](CO)C(=O)N[C@@H](CO)C(=O)NCC(=O)N[C@@H](C)C(=O)N1CCC[C@H]1C(=O)N1CCC[C@H]1C(=O)N1CCC[C@H]1C(=O)N[C@@H](CO)C(N)=O [Non-acylated tirzepatide]
- binding Span (GIPR; GIPR WT, 0.1% casein, CHO-K1): 88.80 ± 5.25
- IC50 (GIPR; [3]): 3.39 nM
- binding Span (GIPR; GIPR, effect of tirzepatide acylation, CHO-K1): 90.71 ± 3.70 % WT or Tirzepatide
- IC50 (GIPR; [4]): 12.6 nM
- EC50 (GLP-1R [1]; [5]): 0.00468 nM
- EC50 (GLP-1R [1]; GLP-1R, effect of tirzepatide acylation, read-out: cAMP pEC50 (converted)): 0.00794 nM
- Emax (GLP-1R [1]; [6]): 99.1 ± 1.65%
- Emax (GLP-1R [1]; [7]): 98.76 ± 0.97%
- Emax (GLP-1R [1]; GLP-1R, effect of tirzepatide acylation, read-out: cAMP Emax): 100 ± 0.88%
- binding Span (GLP-1R [2]; GLP-1R WT, 0.1% casein): 80.39 ± 9.18
- IC50 (GLP-1R [2]; GLP-1R WT, 0.1% casein, read-out: Binding pIC50 (converted)): 24.5 nM
- binding Span (GLP-1R [2]; GLP-1R, effect of tirzepatide acylation): 81.36 ± 4.36 % WT or Tirzepatide
- IC50 (GLP-1R [2]; GLP-1R, effect of tirzepatide acylation, read-out: binding pIC50 (converted)): 12.3 nM

SMILES: CC(C)C[C@H](NC(=O)[C@H](CC(C)C)NC(=O)[C@H](Cc1c[nH]c2ccccc12)NC(=O)[C@H](CCC(N)=O)NC(=O)[C@@H](NC(=O)[C@H](Cc1ccccc1)NC(=O)[C@H](CC(=O)O)NC(=O)[C@H](CCC(N)=O)NC(=O)[C@H](C)NC(=O)[C@H](C)NC(=O)[C@H](CCCNC(=N)N)NC(=O)[C@H](CCC(=O)O)NC(=O)[C@H](CC(=O)O)NC(=O)[C@H](CC(C)C)NC(=O)[C@H](Cc1ccc(O)cc1)NC(=O)[C@H](CCCCN)NC(=O)[C@H](CO)NC(=O)[C@H](CCCCN)NC(=O)[C@H](CC(=O)O)NC(=O)[C@H](CO)NC(=O)[C@@H](NC(=O)[C@H](Cc1ccccc1)NC(=O)[C@@H](NC(=O)CNC(=O)[C@H](CCC(N)=O)NC(=O)C(C)(C)NC(=O)[C@@H](N)Cc1c[nH]cn1)[C@@H](C)O)[C@@H](C)O)C(C)C)C(=O)N[C@@H](CC(=O)O)C(=O)NCC(=O)NCC(=O)N1CCC[C@H]1C(=O)N[C@@H](CO)C(=O)N[C@@H](CO)C(=O)NCC(=O)N[C@@H](C)C(=O)N1CCC[C@H]1C(=O)N1CCC[C@H]1C(=O)N1CCC[C@H]1C(=O)N[C@@H](CO)C(N)=O [Non-lipidated peptide 20] (H-H[Aib]QGTFTSDKSKYLDERAAQDFVQWLLDGGPSSGAPPPS-NH2; N-terminus and C-terminus assumed)
- IC50 (GIPR; GIPR WT, 0.1% BSA, CHO-K1, read-out: Binding pIC50 (converted)): 51.3 nM
- IC50 (GIPR; [3]): 170 nM
- EC50 (GLP-1R [1]; [5]): 0.00288 nM
- influence on cAMP accumulation vs peptide 20 (GLP-1R [1]; GLP-1R, 0.1% BSA): inappreciably influenced
- Emax (GLP-1R [1]; [6]): 99.7 ± 1.41%
- Emax (GLP-1R [1]; [7]): 99.2 ± 1.39%
- binding Span (GCGR; 0.1% BSA): N.B.
- binding pIC50 (GCGR; 0.1% BSA): N.B.
- binding Span (GCGR; 0.1% casein): N.B.
- binding pIC50 (GCGR; 0.1% casein): N.B.
- decrease of binding ability (IC50) vs peptide 20 (GLP-1R [2]; GLP-1R, 0.1% casein or 0.1% BSA): 3- to 17 fold

SMILES: CC[C@H](C)[C@H](NC(=O)[C@H](CC(C)C)NC(=O)[C@H](Cc1c[nH]c2ccccc12)NC(=O)[C@H](CCC(N)=O)NC(=O)[C@@H](NC(=O)[C@H](Cc1ccccc1)NC(=O)[C@H](C)NC(=O)[C@H](CCCCNC(=O)COCCOCCNC(=O)COCCOCCNC(=O)CC[C@H](NC(=O)CCCCCCCCCCCCCCCCCCC(=O)O)C(=O)O)NC(=O)[C@H](CCC(N)=O)NC(=O)[C@H](C)NC(=O)[C@@H](NC(=O)[C@H](CCCCN)NC(=O)[C@H](CC(=O)O)NC(=O)[C@H](CC(C)C)NC(=O)C(C)(C)NC(=O)[C@@H](NC(=O)[C@H](CO)NC(=O)[C@H](Cc1ccc(O)cc1)NC(=O)[C@H](CC(=O)O)NC(=O)[C@H](CO)NC(=O)[C@@H](NC(=O)[C@H](Cc1ccccc1)NC(=O)[C@@H](NC(=O)CNC(=O)[C@H](CCC(=O)O)NC(=O)C(C)(C)NC(=O)[C@@H](N)Cc1ccc(O)cc1)[C@@H](C)O)[C@@H](C)O)[C@@H](C)CC)[C@@H](C)CC)C(C)C)C(=O)N[C@@H](C)C(=O)NCC(=O)NCC(=O)N1CCC[C@H]1C(=O)N[C@@H](CO)C(=O)N[C@@H](CO)C(=O)NCC(=O)N[C@@H](C)C(=O)N1CCC[C@H]1C(=O)N1CCC[C@H]1C(=O)N1CCC[C@H]1C(=O)N[C@@H](CO)C(N)=O [Tirzepatide]
- IC50 (GIPR; Fig. 7c receptor binding profile, n = 3 in duplicate, SEM, read-out: GIPR (pIC50 ± S.E.M.) (converted)): 31.6 nM
- binding Span (GIPR; GIPR WT, 0.1% casein, CHO-K1): 92.95 ± 3.97
- IC50 (GIPR; [3]): 3.16 nM
- binding Span (GIPR; GIPR WT, CHO-K1): 102.92 ± 6.94 % WT
- IC50 (GIPR; GIPR WT, CHO-K1, read-out: binding pIC50 (converted)): 89.1 nM and 97.7 nM
- IC50 (GIPR; [4]): 105 nM
- Emax (GLP-1R [1]; [6]): 99.7 ± 1.5%
- Emax (GLP-1R [1]; [7]): 99.1 ± 1.73%
- GCGR (pIC50 ± S.E.M.) (GCGR; Fig. 7c receptor binding profile, n = 3 in duplicate): N.B.
